For test [1], the target named is T1, Brd4 bromodomain 1 (BRD4(1)) (Homo sapiens, UniProt O60885).
T1 construct: made in house; host or cells: E. coli BL21(DE3)
The test can be described thus: Inhibition of tetra-acetylated histone H4 binding to Brd4 bromodomain 1 (TR-FRET). As to conditions: tetra-acetylated histone H4 peptide, first bromodomain of Brd4. In outline:
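His-tagged BRD4(1) from E. coli (200 nM) with biotinylated tetra-acetylated H4 peptide (25-50 nM), Eu-cryptate streptavidin and XL665 anti-His, in HEPES pH 7.4/phosphate/KF buffer, 0.2% DMSO. After 2 h at room temperature, TR-FRET 665/620 nm ratio read; IC50 from dose-response curves.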
Background: Time-resolved FRET reads energy transfer from a long-lived donor to a nearby acceptor.

For the next test, the system named is hIL-17 mRNA. In words: Inhibition of hIL-17 mRNA transcription in OKT3-stimulated peripheral blood mononuclear cells. The format is cell-based. Conditions: PBMC, human peripheral blood mononuclear cells, OKT3 antibody, 6 h, read-out: IL-17 activity. As to the method:
In this example, hIL-17 mRNA in human peripheral blood mononuclear cells was quantitated to measure the transcriptional inhibition of hIL-17 when treated with a compound of the invention.
Human peripheral blood mononuclear cells were plated (2.0×10^5 cells per well) in a 96-well plate in 45 μL OpTimizer T Cell expansion media containing 20 ng/ml IL-2 and penicillin/streptomycin. The cells were treated with the test compound (45 μL at 2× concentration), and then the cells were incubated at 37° C. for 1 h before addition of 10× stock OKT3 antibody at 10 μg/ml in media. Cells were incubated at 37° C. for 6 h before the cells were harvested. At time of harvest, cells were centrifuged (800 rpm, 5 min). Spent media was removed and cell lysis solution (70 μL) was added to the cells in each well and incubated for 5-10 min at room temperature, to allow for complete cell lysis and detachment. mRNA was then prepared using the “mRNA Catcher PLUS plate” (Invitrogen), according to the protocol supplied. After the last wash, as much wash buffer as possible was aspirated without allowing the wells to dry. Elution buffer (E3, 70 μL) was then added to each well. mRNA was then eluted by incubating the mRNA Catcher PLUS plate with Elution Buffer for 5 min at 68° C. and then immediately placing the plate on ice.
The eluted mRNA isolated was then used in a one-step quantitative RT-PCR reaction, using components of the Ultra Sense Kit together with Applied Biosystems primer-probe mixes. Real-time PCR data was analyzed, normalizing the Ct values for hIL-17 to an internal control, prior to determining the fold induction of each unknown sample, relative to the control.

Another test concerns human AML MV-4-11 cells. In words: Inhibition of cell proliferation in MV4-11 cells (CellTiter Aqueous One). The format is cell-based. As to conditions: MV4-11, 72 h. In outline: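 Exponentially growing MV-4-11 cells (5×10^4/well) were treated immediately with two-fold dilutions of compound from 30 μM to 0.2 μM, in triplicate, for 72 h at 37° C, 5% CO2. Viability was measured by MTS absorbance at 490 nm after 3–4 h. Proliferation relative to DMSO after blank correction gave IC50.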

Another test concerns c-myc. The test can be described thus: Inhibition of c-myc expression (mRNA, real-time PCR) in MV4-11 cells. The format is cell-based. Conditions: Human AML MV4-11 cells, 3 h, cMYC mRNA. The method, boiled down:
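MV4-11 cells treated 3 h at 37° C with increasing compound concentrations or 0.1% DMSO, in triplicate. cMYC mRNA quantified by one-step TaqMan real-time PCR, Ct normalized to internal control (Cyclophilin primers used), fold expression relative to control.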
Background: In qPCR the cycle at which signal appears reflects the starting amount.

Another test relates to hIL-6 mRNA. The test can be described thus: Inhibition of hIL-6 mRNA transcription in LPS-stimulated U937 cells. The format is cell-based. As to conditions: Homo sapiens, U-937; PMA-differentiated U937 cells, 1 h pretreatment, 1 ug/mL LPS stimulation, 3 h; read-out: IL-6 activity (Inhibition of hIL-6 mRNA Transcription). The method, boiled down: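 U937 cells differentiated 3 days with 60 ng/mL PMA, pretreated 1 h with compound (0.1% DMSO), then stimulated with 1 ug/mL E. coli LPS for 3 h at 37 °C. hIL-6 mRNA measured by one-step TaqMan RT-qPCR, normalized to cyclophilin. Fold expression relative to control; triplicate wells.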

Each structure is given as a SMILES string. A value given as a limit tells only on which side of the number the result lay.

Regarding `CC(=O)Nc1cc(-c2c(C)noc2C)cc2c1nc(C)n2Cc1ccccc1` [Example Compound 64, N-(1-benzyl-6-(3,5-dimethylisoxazol-4-yl)-2-methyl-1H-benzo[d]imidazol-4-yl)acetamide], the IC50 in test [1] was not above 300 nM; in the test on hIL-17 mRNA, not above 300 nM; in the test on human AML MV-4-11 cells, 300 to 3000 nM; in the test on c-myc it was not above 300 nM; with hIL-6 mRNA it was not above 300 nM.
For the molecule `Cc1noc(C)c1-c1cnc2[nH]c(=O)n(Cc3ccc(Cl)cc3)c2c1` [compound 105, 1-(4-chlorobenzyl)-6-(3,5-dimethylisoxazol-4-yl)-1H-imidazo[4,5-b]pyridin-2(3H)-one], the IC50 was not above 300 nM in test [1]; 300 to 3000 nM in the test with hIL-17 mRNA; 300 to 3000 nM in the test on human AML MV-4-11 cells; 300 to 3000 nM in the test on c-myc; 300 to 3000 nM in the test on hIL-6 mRNA.
As to `Cc1noc(C)c1-c1cnc2[nH]c(=O)n(Cc3cccs3)c2c1` [compound 106, 6-(3,5-dimethylisoxazol-4-yl)-1-(thiophen-2-ylmethyl)-1H-imidazo[4,5-b]pyridin-2(3H)-one], the IC50 in test [1] is not above 300 nM; with hIL-17 mRNA, 300 to 3000 nM; in the test on human AML MV-4-11 cells, 300 to 3000 nM; with c-myc, 300 to 3000 nM; in the test with hIL-6 mRNA, 300 to 3000 nM.
Regarding `Cc1noc(C)c1-c1cnc2[nH]c(=O)n(C(C)c3ccccc3)c2c1` (centres unmarked) [compound 112, 6-(3,5-dimethylisoxazol-4-yl)-1-(1-phenylethyl)-1H-imidazo[4,5-b]pyridin-2(3H)-one], the IC50 in test [1] is not above 300 nM; in the test with hIL-17 mRNA, not above 300 nM; in the test on human AML MV-4-11 cells, 300 to 3000 nM; in the test on c-myc, not above 300 nM; in the test with hIL-6 mRNA it was 300 to 3000 nM.

The values are drawn from patent US10363257B2 (ZENITH EPIGENETICS LTD., priority 2013, dated 2019).
